Results reported in patent US20030224023A1, “Cosmetic compositions with hydroxy amine salts of malonic acid” (Unilever Home & Personal Care USA, Division of Conopco, Inc., priority 2002, published 2003).

Description: This formula contains 8% Glycolic acid or 0.1053 equivalents, neutralized with 2.4% ammonia hydroxide which is 0.0395 equivalents, resulting in a final formula pH of 3.8. The DMAE formula contains 2.58% malonic acid or 0.0496 equivalents, neutralized with 3.20% DMAE which is 0.0358 equivalents, resulting in a final formula pH of 5.5. […] The clinical involved (49) panelists over a six week period. Panelists were required to apply each product to one half of their face. After application, the panelists were required to answer a series of questions regarding relative effectiveness of the products.
The effect of pH was evaluated with another set of panelists numbering (58) persons utilizing a formulation at pH 6.5. In this set, 2.05% or 0.0394 equivalents of Malonic acid was neutralized with 3.17% or 0.0356 equivalents of DMAE resulting in a formula with a pH of 6.5. In this formula the malonic acid was 90.35% neutralized with the DMAE. In both DMAE formulas the lower pKa malonic acid group was totally neutralized, depending on the amount of malonic acid present in each formula. The second higher pKa acid group was partially neutralized with the remaining DMAE equivalents to bring the pH up to the desired value.

CN(C)CCO.O=C(O)CC(=O)O [DMAE malonate, dimethylaminoethanol (DMAE) malonate]
improving the general condition of skin (compared with ammonium glycolate): as effective as ammonium glycolate | irritation (compared with the ammonium glycolate composition): considerably less irritating than the ammonium glycolate composition
